How the values were obtained:
LPS treated LDLR−/− mice = experiment: Responses to LPS treatment (lipopolysaccharide induced systemic inflammation) in LDLR−/− mice treated with saline or berberine; assay type: in vivo
Protocol: Healthy mice had activity level, body temperature, blood pressure, and cardiac function (echocardiography) assessed at baseline (time 0) as detailed below. Mice were then injected intra-peritoneally with LPS (20 mg/kg, E. coli strain 01 II: B4, Sigma™, St. Louis, Mo.). This dose was determined from previous experiments where, in the background strain of C57BL/6 mice, LPS 20 mg/kg delivered intra-peritoneally was the lowest dose, which was lethal in all cases within 12 hours^24. Then activity level and temperature were measured every hour for six hours. At six hours blood pressure was measured by invasive arterial cannulation and cardiac function (echocardiography) was assessed again.
Activity Index: Mice were observed during 2 minutes for posture and activity. 0 (normal) denotes that there are no times with a hunched posture, and the mouse had spontaneous rapid movements interspersed with eating and drinking. 1 (mild) is occasional brief (5-20 seconds) hunched posture, which spontaneously reverted to normal with ongoing spontaneous rapid movements interspersed with eating and drinking. 2 (mild-moderate) was longer (>20 seconds) in the hunched posture which spontaneously reverted to normal with ongoing spontaneous rapid movements interspersed with eating and drinking. 3 (moderate-severe) was nearly continual hunched posture with movement only when subjected to strong external stimuli. 4 (severe) was continual hunched posture without movement.
Temperature: Temperature was measured hourly using an infra-red thermometer (IR-101 La Crosse Technology, La Crosse USA)) held 2-3 mm from the abdomen.
Blood Pressure: At baseline (time 0) mean arterial blood pressure was measured using a non-invasive tail cuff (CODA 2™, Kent Scientific, Torrington, USA). Six hours after LPS injection, mice were anesthetized using inhaled isofluorane (1-3%). Following a small laparatomy, the abdominal aorta was punctured using a 27 gauge needle then a number 2 French micromanometer catheter (Mikro-tip SPR-838™, Millar Instruments Inc., Houston, Tex.) was inserted into the aorta. Mean arterial pressure was derived using analysis software (PVAN 2.9™, Millar Instruments Inc.).
Echocardiography: Mice were lightly anaesthetized using inhaled isofluorane (1-3%) and placed on a warming blanket. M-mode echocardiograms (ECHO) were targeted from 2D echos obtained using the Vevo 770 ECHO (Visualsonics™, Toronto, ON, Canada) operating at a 120 Hz frame rate. Left parasternal 2D left ventricular cross-sectional echocardiographic images were obtained. The position and angle of the echo transducer is maintained by directing the beam just off the tip of the anterior leaflet of the mitral valve and by maintaining internal anatomic landmarks constant. All measurements are taken from M-mode traces at end-expiration. Left ventricular internal dimensions were measured at end-diastole (defined as the onset of the QRS complex in lead II of the simultaneously obtained electrocardiogram) and at end-systole (defined as minimum internal ventricular dimension).
This is consistent with the hypothesis that the benefit derived from the inhibition of PCSK9 is the result of increased availability of LDLR and a subsequent reduction in plasma LDL.

PCSK9 = conditions: intravenous infusion, as early as 8 hours after injection, non-human primates; cited from earlier work
[1] = LDLR−/− mice, 6 hrs after LPS, median (95% CI), n = 4
[2] = LDLR−/− mice, baseline, median (95% CI), n = 4

Row | Molecule | Activity 6 hrs LPS (LPS treated LDLR−/− mice; [1]) | EF 6 hrs LPS (LPS treated LDLR−/− mice; [1]) | MAP 6 hrs LPS (LPS treated LDLR−/− mice; [1]) | Activity Baseline (LPS treated LDLR−/− mice; [2]) | MAP Baseline (LPS treated LDLR−/− mice; [2]) | Temp. Baseline (LPS treated LDLR−/− mice; [2]) | Differences between saline and berberine mice in responses to LPS (LPS treated LDLR−/− mice; LPS treated LDLR−/− mice, berberine vs saline) | Circulating LDL-C levels (PCSK9)
1 | COc1ccc2cc3[n+](cc2c1OC)CCc1cc2c(cc1-3)OCO2 [Berberine, berberine] | 0 (−0.8-0.3) | 26.0 (23.0-29.0) | 53 (52-54) | 0 (0-0) | 109 (93-125)^ | 37.0 (36.2-37.9) | minimal differences | 
2 | AMG145: Amgen monoclonal antibody specific for the catalytic domain of PCSK9 (antibody, chains of the INN, looked up, V domains shown) VH: EVQLVQSGAEVKKPGASVKVSCKASGYTLTSYGISWVRQAPGQGLEWMGWVSFYNGNTNYAQKLQGRGTMTTDPSTSTAYMELRSLRSDDTAVYYCARGYGMDVWGQGTTVTVSS VL: ESALTQPASVSGSPGQSITISCTGTSSDVGGYNSVSWYQQHPGKAPKLMIYEVSNRPSGVSNRFSGSKSGNTASLTISGLQAEDEADYYCNSYTSTSMVFGGGTKLTVL |  |  |  |  |  |  |  | significant reduction
